Assay results published in US8669293B2, “Method and compositions for preventing hormone induced adverse effects” (Lycored Ltd., priority 2000, dated 2014).
Entries after “also recorded” stand apart in the source; their conditions may differ.

Assays:
[1] = tested on: ECC-1 endometrial cancer cells; assay: ECC-1 cell proliferation assay ([3H]thymidine incorporation into DNA); format: cell-based, human; conditions: for inhibition of estradiol-induced cell proliferation / inhibition of genistein-induced cell proliferation: FIG. 4
Description: The human endometrial cancer (estrogen dependent) cell line ECC-1 was developed by Dr. […] University, PA, U.S.A, and generously provided to us by Dr. R. Oregan, Norwestern University, Chicago, Ill., U.S.A. Human mammary cancer cell lines MCF-7 (estrogen dependent) and MDA-231 (hormone independent) were obtained from the American Type Culture Collection (Rockville, Md., U.S.A.). Cells were cultured in DMEM containing penicillin (100 U/ml), streptomycin (0.1 mg/ml)) nystatin (12.5 μg/ml), insulin (0.6 μg/ml), and 10% FCS. Cells were stripped of endogenous steroids according to the procedure of Vignon et al. (1987, Biochem. Biophys. Res. Comm., 146:1502-8) by sucessive passages in medium without phenol red containing 10% and then 3% of charcoal-stripped FCS. Cells were seeded into 96 multiwell plates (5,000 cells per well) in DMEM containing 3% of charcoal-stripped FCS. After one day the medium was changed to one containing the solubilized carotenoid or THF alone. The medium was changed daily to ensure a continuous supply of carotenoid. After incubation, the number of cells and the rate of cell proliferation were estimated by the incorporation of [^3H]thymidine incorporation into cellular DNA, as described in U.S. Pat. No. 5,827,900. Cell growth was also measured by direct cell counting with a Coulter counter after trypsinization and dilution in Isotone-II (Coulter Electronics, Luton, England). A good correlation was found between the two methods. ECC-1 cells were incubated with increasing concentrations of the isoflavones genistein and daidzein, the two primary isoflavones in soy products, and with soy extract. Cell proliferation after three days was measured by [^3H]thymidine incorporation into DNA (FIG. 1, panel A). […] ECC-1 cells were also incubated with a single high concentration (40 μM) of each of genistein, daidzein and soy extract and cell proliferation was assayed daily over the course of three days.

[2] = tested on: estrogen receptor-positive human breast cancer cell lines; conditions: approximately 0.1 to 10 μM; not in estrogen receptor negative lines; cited from earlier work
[3] = tested on: MCF-7 mammary cancer cells (estrogen dependent); assay: MCF-7 cell proliferation assay ([3H]thymidine incorporation); format: cell-based, human; conditions: for inhibition of phytoestrogen-induced cell proliferation: genistein 4 μM
Description: (§1) The human endometrial cancer (estrogen dependent) cell line ECC-1 was developed by Dr. P. G. Satyaswaroop, Pennslyvania State University, PA, U.S.A, and generously provided to us by Dr. R. Oregan, Norwestern University, Chicago, Ill., U.S.A. Human mammary cancer cell lines MCF-7 (estrogen dependent) and MDA-231 (hormone independent) were obtained from the American Type Culture Collection (Rockville, Md., U.S.A.).
(§2) Cells were cultured in DMEM containing penicillin (100 U/ml), streptomycin (0.1 mg/ml)) nystatin (12.5 μg/ml), insulin (0.6 μg/ml), and 10% FCS. Cells were stripped of endogenous steroids according to the procedure of Vignon et al. (1987, Biochem. Biophys. Res. Comm., 146:1502-8) by sucessive passages in medium without phenol red containing 10% and then 3% of charcoal-stripped FCS. Cells were seeded into 96 multiwell plates (5,000 cells per well) in DMEM containing 3% of charcoal-stripped FCS. After one day the medium was changed to one containing the solubilized carotenoid or THF alone. The medium was changed daily to ensure a continuous supply of carotenoid.
(§3) After incubation, the number of cells and the rate of cell proliferation were estimated by the incorporation of [^3H]thymidine incorporation into cellular DNA, as described in U.S. Pat. No. 5,827,900. Cell growth was also measured by direct cell counting with a Coulter counter after trypsinization and dilution in Isotone-II (Coulter Electronics, Luton, England).
The comparative effects of estradiol and genistein supplementation on the proliferation of the hormone-dependent cell lines MCF-7 mammary cancer and ECC-1 endometrial cancer were examined (FIG. 2).
MCF-7 mammary cancer cells were stimulated by genistein (4 μM) and test cultures were additionally supplemented with lycopene or phytoene or a combination of both, at either physiological concentrations (FIG. 6 panel A) or at about one order of magnitude greater than the physiological concentrations (FIG. 6 panel B).

[4] = tested on: MDA-231 mammary cancer cells (hormone independent); assay: MDA-231 cell proliferation assay ([3H]thymidine incorporation); format: cell-based, human; conditions: IGF-1 30 nM
Description: as §1, §2
as §3, with “England). A good correlation was found between the two methods.” for “England).”

[5] = 40 μM, after one day of incubation, FIG. 1 panel B
[6] = 0.4 and 4 μM, three days, FIG. 1 panel A
[7] = higher, non-physiological concentrations (≧10 μM), three days, FIG. 1 panel A
[8] = carotenoids at high, non-physiological concentrations (about one order of magnitude above physiological), FIG. 6 panel B
[9] = carotenoids at physiological concentrations, FIG. 6 panel A
[10] = lycopene 3 to 5 μM, three days, FIG. 2

Molecule: CC1=C(/C=C/C(C)=C/C=C/C(C)=C/C=C/C=C(C)/C=C/C=C(C)/C=C/C2=C(C)C(=O)[C@@H](O)CC2(C)C)C(C)(C)C[C@H](O)C1=O [astaxanthin]
- inhibition of estradiol-induced cell proliferation ([1]; estradiol 10 nM): effectively inhibited
- inhibition of genistein-induced cell proliferation ([1]; genistein 1 μM): effective inhibitors; also recorded: effectively inhibited

Molecule: CC1=C(/C=C/C(C)=C/C=C/C(C)=C/C=C/C=C(C)/C=C/C=C(C)/C=C/C2=C(C)CCCC2(C)C)C(C)(C)CCC1 [beta-carotene]
- inhibition of estradiol-induced cell proliferation ([1]; estradiol 10 nM): effectively inhibited
- inhibition of genistein-induced cell proliferation ([1]; genistein 1 μM): effective inhibitors; also recorded: effectively inhibited

Molecule: COc1ccc(-c2coc3cc(O)cc(O)c3c2=O)cc1 [biochanin A]
- effect on cell proliferation [2]: induce cell proliferation

Molecule: O=c1oc2cc(O)ccc2c2oc3cc(O)ccc3c12 [counestrol]
- effect on cell proliferation [2]: induce cell proliferation

Molecule: O=c1c(-c2ccc(O)cc2)coc2cc(O)ccc12 [daidzein, reference compound]
- effect on cell proliferation [1, 5]: significantly increases cell proliferation; also recorded: stimulated cell proliferation
- effect on cell proliferation [1, 6]: significant increase in cell proliferation rate; also recorded: stimulated cell proliferation
- effect on cell proliferation [1, 7]: only stimulatory

Molecule: O=c1c(-c2ccc(O)cc2)coc2cc(O)cc(O)c12 [genistein, reference compound]
- stimulatory effect of genistein in the presence of IGF-1 ([3]; genistein about 0.4 to 4 μM plus IGF-1 30 nM, compared with genistein alone, FIG. 3 panel A): significantly increases the cell proliferation rate; also recorded: further augmented
- effect of hormone alone on proliferation ([3]; genistein increasing concentrations, estradiol 1 and 10 nM, FIG. 2): biphasic effects on proliferation
- effect on cell proliferation [1, 5]: significantly increases cell proliferation; also recorded: stimulated cell proliferation
- effect on cell proliferation ([1]; 40 μM, second day in culture, FIG. 1 panel B): inhibitory effects
- effect on cell proliferation [1, 6]: significant increase in cell proliferation rate
- effect on cell proliferation ([1]; 0.4 and 4 μM, three days, FIG. 1 panel A, listed as Genistein): stimulated cell proliferation
- effect of hormone alone on proliferation ([1]; genistein increasing concentrations, estradiol 1 and 10 nM, FIG. 1/2): biphasic effects on proliferation
- effect on cell proliferation [1, 7]: inhibited cell proliferation
- effect on cell proliferation [2]: induce cell proliferation

Molecule: O=c1c(O)c(-c2ccc(O)cc2)oc2cc(O)cc(O)c12 [kaempferl]
- effect on cell proliferation [2]: induce cell proliferation

Molecule: O=c1cc(-c2ccc(O)c(O)c2)oc2cc(O)cc(O)c12 [luiolin]
- effect on cell proliferation [2]: induce cell proliferation

Molecule: CC(C)=CCC/C(C)=C/C=C/C(C)=C/C=C/C(C)=C/C=C/C=C(C)/C=C/C=C(C)/C=C/C=C(\C)CCC=C(C)C [lycopene]
- cell proliferation relative to controls ([4]; lycopene 3 to 5 μM, FIG. 3): reduced to levels less than that of controls
- effect on IGF stimulation of proliferation ([4]; lycopene 3 to 5 μM, FIG. 3): inhibits IGF stimulation
- inhibition of phytoestrogen-induced cell proliferation [3, 8]: effective in significantly inhibiting
- inhibition of phytoestrogen-induced cell proliferation [3, 9]: only marginally effective
- effect on IGF stimulation of proliferation ([3]; lycopene 3 to 5 μM, IGF-1 30 nM, FIG. 3): inhibits IGF stimulation
- effect on cell proliferation stimulated by combined IGF-1 and genistein ([3]; lycopene 3 to 5 μM, genistein 0.4 to 4 μM, IGF-1 30 nM, FIG. 3 panel A): inhibits the cell proliferation
- effect on basal growth [3, 10]: significantly inhibited
- effect on estrogen-induced (genistein or estradiol) growth [3, 10]: substantially inhibited; also recorded: significantly inhibited
- inhibition of estradiol-induced cell proliferation ([1]; estradiol 10 nM): effectively inhibited
- inhibition of estradiol-induced cell proliferation, dose dependence ([1]; estradiol 10 nM, various lycopene concentrations (lowest 0.9 μM), FIG. 5): all lycopene concentrations tested were effective in inhibiting
- inhibition of genistein-induced cell proliferation ([1]; genistein 1 μM): effective inhibitors; also recorded: effectively inhibited
- inhibition of genistein-induced cell proliferation, dose dependence ([1]; genistein 1 μM, various lycopene concentrations (lowest 0.9 μM), FIG. 5): all lycopene concentrations tested were effective in inhibiting
- effect on basal growth [1, 10]: significantly inhibited
- effect on estrogen-induced (genistein or estradiol) growth [1, 10]: substantially inhibited; also recorded: significantly inhibited

Molecule: CC(C)=CCC/C(C)=C/CC/C(C)=C/CC/C(C)=C/C=C/C=C(\C)CC/C=C(\C)CC/C=C(\C)CCC=C(C)C [phytoene]
- inhibition of phytoestrogen-induced cell proliferation [3, 8]: effective in significantly inhibiting
- inhibition of phytoestrogen-induced cell proliferation [3, 9]: not effective
- inhibition of genistein-induced cell proliferation ([1]; genistein 1 μM): effective inhibitors

Molecule: IGF-1: Human recombinant IGF-1 purchased from GroPep
- effect on cell growth ([4]; FIG. 3 panel B): significantly stimulates cell growth
- effect on cell growth ([3]; IGF-1 30 nM, FIG. 3 panel A): significantly stimulates cell growth
